Measured values from PubChem BioAssay (NCI).
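Grown in 96-well plates, cells were treated for 48 hours with each compound at five concentrations. Insufficient inhibition: endpoint recorded as highest concentration tested. GI50 = concentration required for 50% inhibition of growth. TGI: concentration producing complete growth inhibition.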

How the values were obtained:
Experiment in all cases: NCI-60 cell line screen, 48 h
[1] = test system: OVCAR-4 ovarian
[2] = test system: IGROV1 ovarian
[3] = test system: SW-620 colon
[4] = test system: TK-10 renal
[5] = test system: SF-268 CNS
[6] = test system: UACC-62 melanoma
[7] = test system: NCI-H460 lung
[8] = test system: UACC-257 melanoma
[9] = test system: SF-539 CNS

| Compound | TGI [1] [µM] | TGI [2] [µM] | TGI [3] [µM] | TGI [4] [µM] | TGI [5] [µM] | TGI [6] [µM] | TGI [7] [µM] | TGI [8] [µM] | TGI [9] [µM] | GI50 [2] [µM] | GI50 [3] [µM] | GI50 [8] [µM] | GI50 [4] [µM] | GI50 [5] [µM] | GI50 [9] [µM] | GI50 [6] [µM] | GI50 [7] [µM] | GI50 [1] [µM] |
| --- | --- | --- | --- | --- | --- | --- | --- | --- | --- | --- | --- | --- | --- | --- | --- | --- | --- | --- |
| CCOC(=O)C1(Cc2ccc3ccccc3c2)CCCCC(=O)N1 (configuration not stated) | > 100 | > 100 | > 100 | > 100 | > 100 | > 100 | > 100 |  |  |  |  |  |  |  |  |  |  |  |
| C=C1C(=O)C23C(O)C1CC[C@H]2C12CCCC(C)(COC(C)=O)[C@H]1[C@H](O)[C@]3(O)OC2 (some centres not stated) | 5.49 | 4.05 | 1.92 | 3.62 | 6.95 | 3.16 | 6.36 | 3.67 | 3.07 |  |  |  |  |  |  |  |  |  |
| COC(=O)C1C(=O)N(CCc2c[nH]c3ccccc23)C[C@@H]2CCC(=O)C[C@H]12 (some centres not stated) | > 100 | > 100 | > 100 | > 100 | > 100 | > 100 | > 100 | > 100 | > 100 |  |  |  |  |  |  |  |  |  |
| Cc1cc(C)n(C2=NS(=O)(=O)c3ccccc3N2C)n1 | > 100 | > 100 | > 100 | > 100 | > 100 | > 100 | > 100 | > 100 | > 100 |  |  |  |  |  |  |  |  |  |
| O=C1c2ccccc2-c2c1c1ccccc1c(=O)n2CCNCCn1c2c(c3ccccc3c1=O)C(=O)c1ccccc1-2 |  | > 25 | > 25 | > 25 | > 25 | > 25 | > 25 | > 25 | > 25 | > 25 | > 25 | > 25 | > 25 | > 25 | > 25 | > 25 | > 25 |  |
| O=C1/C(=C/c2ccc([N+](=O)[O-])cc2)COc2ccc(O)cc21 | > 100 | 4.99 | 3.3 | > 100 | > 100 | 34.5 | > 100 | > 100 | 18.3 | 2 | 1.5 | 32.1 | 26.2 | 15.3 | 4.42 | 9.02 | 9.03 | 11.3 |
| C[C@]12C/C(=C/O)C(=O)C(O)=C1CC[C@@H]1C2CC[C@@]2(C)C1CC[C@@H]2O (some centres not stated) | 62.7 | 46 | > 100 | > 100 | 54.1 | 46.7 | 48.1 | 62 | 34.2 |  |  |  |  |  |  |  |  |  |
| c1ccc(-c2nc(N3CCCNCC3)c3nc(-c4ccccc4)oc3n2)cc1 | 3.67 | 3.13 | 3.47 | 3 | 3.62 | 3.34 | 3.54 | 3.43 | 3.03 | 1.59 | 1.76 | 1.8 | 1.53 | 1.76 | 1.64 | 1.81 | 1.86 | 1.98 |
| Cc1c2ccncc2c(C)c2c1[nH]c1ccc(O)c(OCC(F)(F)F)c12 | 14 | 18.1 | 19.2 | 25 | 24.1 | 21.6 | 10.5 | 21.4 | 16.3 |  |  |  |  |  |  |  |  |  |
| N.N.N.N.N.O=S(=O)([O-])S(=O)(=O)[O-].[Co+3] | > 100 | > 100 | > 100 | > 100 | > 100 | > 100 | > 100 | > 100 | > 100 | > 100 | > 100 | > 100 | > 100 | > 100 | > 100 | > 100 | > 100 | > 100 |
| O=C1/C(=C/c2cccc([N+](=O)[O-])c2)Sc2scc(-c3ccc([N+](=O)[O-])cc3)[n+]21 | > 100 | 53.6 | > 100 |  |  | 48.5 | 24.6 | 69.8 | > 100 |  |  |  |  |  |  |  |  |  |
| CC(=O)[CH-]C(=O)c1ccccc1.CC(=O)[CH-]C(=O)c1ccccc1.CC1(C)OCC(C2OC3OC(C)(C)OC3C2[O-])O1.CC[O-].[Ti+4] (configuration not stated) | 32.2 | 33.5 | 44.5 | 27 | 29 | 28.8 | 24.8 | 54.8 | 27.4 | 17.9 | 15.6 | 19.4 | 12.4 | 13.1 | 13.3 | 14.2 | 10.8 | 14.2 |
